We go through four compounds from US9512139B2, “Conformationally constrained, fully synthetic macrocyclic compounds” (POLYPHOR AG, priority 2009, dated 2016).

For data set [1], the target named is T1, Motilin Receptor (Homo sapiens, UniProt O43193).
T1 construct: host or cells: Ca2+ optimized hematopoietic cell lines (rat)
The experiment in a line: Ca2+ assay (FLIPR) for the GPCR motilin receptor, agonist and antagonist mode. The settings on record: antagonist mode. The data set is classed as cell-based. Here is the method:
Ca^2+ Assays for the GPCRs Motilin Receptor, Prostaglandin F (FP) Receptor, 5-hydroxytryptamine 2B (5-HT2B) Receptor, and Purinoreceptor P2Y1
Assays were performed using on a FLIPR^TETRA fluorometric imaging plate reader (Molecular Devices) with ScreenWorks Version 2 (Molecular Devices) as device operating and data analysis software.
Dose dependent agonist and antagonist activities were determined. Percentage activation and percentage inhibition values were determined.
Percentage activation was determined upon initial addition of the sample compounds followed by 10 minutes incubation at 25° C. Following compound incubation, reference agonists were added at EC80 to determine percentage inhibition.
Reference agonists were purchased from reputable commercial vendors and prepared according to each ligand's specifications. All handling of ligands were done to ensure proper control throughout the experiments.
Example compounds were weighed on a Microbalance (Mettler MX5) and dissolved in 100% DMSO to a final concentration of 2.5 mM and subsequently diluted into the assay buffer.
The Assay buffer was a supplemented HBSS (Hank's Balanced Salt Solution). HBSS was supplemented with 20 mM HEPES (4-(2-hydroxyethyl)-piperazin-1-ethansulfonic acid) and 2.5 mM Probenecid (Sigma P8761).
GPCR assays were performed using Ca^2+ optimized hematopoietic cell lines (rat) with cultures never exceeding 90% confluency. […] After seeding, the assay plates were incubated for forty-five (45) minutes at room temperature. After room temperature incubation, the assay plates were incubated at 37° C. 5% CO2 for 24 hours prior to assaying.
All GPCR assays were performed using Fluo-8 Ca^2+ dye. Ca^2+ dye was prepared at 1× dye concentration in GPCR assay buffer. After 24 hours of incubation, cells were washed with GPCR assay buffer, and then Ca^2+-dye (100 μL/well) was added.
The plates were incubated for 90 minutes at 30° C. 5% CO2 prior to FLIPR assay.
Compound plates were prepared to add 50 μL/well during the agonist assay mode. During the FLIPR assay, 50 μL/well from the compound plate was diluted 3-fold into the existing 100 μL/well from the dye loading step. Therefore all compounds were prepared as 3× the final concentration desired in the assay.
After completion of the first single addition assay run, assay plate was removed from the FLIPR Tetra and placed at 25° C. for seven (7) minutes before antagonist assay.
Using the EC80 values determined during the agonist assay, all pre-incubated sample compound and reference antagonist (if applicable) wells were stimulated at the EC80 of the reference agonist. As reference ligands for the first three assays their obvious natural ligands motilin, prostaglandin F2α, and serotonin (5-HT, 5-Hydroxytryptamine) were used; and for the P2Y1 assay 2MeSATP (2-methyl-thio-adeno-sine 5′-triphosphate, i.e. (2R,3S,4R)-5-(6-amino-2-methylsulfanyl-purin-9-yl)-3,4-dihydroxy-tetrahydrofuran-2-yl]methyl (hydroxy-phosphonooxy-phosphoryl)hydrogen phosphate) was applied.
After the addition of the reference agonist fluorescence was monitored for 180 sec using FLIPR Tetra.
Data Analysis and Results:
From the FLIPR data, with negative control correction enabled, the maximum statistic for each well was exported and percentage activation relative to Emax control was calculated.

Data set [2] can be described thus: Metabolic stability assay, CD-1 mouse microsomes. The data set is classed as in vitro ADME. As to conditions: CD-1, mouse, microsomes; for Metabolic Stability T½ [min] mouse / Metabolic Stability 60 min mouse [% remain.]: both, 10 µM; for Metabolic Stability 60 min mouse [% remain.]: 1 h.
Data set [3] in a line: in vitro. The settings on record: both, CD-1, mouse, plasma, 10 µM; for Plasma Stability 240 min mouse [% remain.]: 4 h. Format: in vitro ADME, mouse.
Description: Example compounds were dissolved in DMSO/H2O 90:10 to a final concentration of 10 mM for plasma stability determination and metabolic stability determination.
Human plasma (3-5 donors, Blutspendedienst SRK, Basel) and CD-1 mouse plasma (mixed gender pool >50 animals, Innovative Research, CA, USA) are both sodium citrate stabilized. The assay is performed in triplicates at 10 μM compound concentration and 37° C. Samples are taken at 0, 15, 60, and 240 minutes and stopped by precipitation with 2 volumes of acetonitrile. The supernatant is collected, evaporated and reconstituted in a 5% acetonitrile solution to be analyzed by HPLC/MS/MS. The resulting peak area counts are expressed in percent of the 0 value and used to determine the endpoint stability in % and the half life in minutes. In order to monitor assay integrity the degradation of propantheline is assayed with every experimental set.
Data set [4] in a line: Metabolic stability assay, human microsomes. The data set is classed as in vitro ADME. The settings on record: human, microsomes; for half-life at 10 µM: both sexes; for Metabolic Stability 60 min hum [% remain.]: 1 h.
Data set [5] can be described thus: in vitro. The data set is classed as in vitro ADME, human. As to conditions: human, plasma, 10 µM; for Plasma Stability 240 min hum [% remain.]: 4 h.
Data set [6] in a line: Plasma stability assay, rat plasma (values in parentheses). The settings on record: value in parentheses. The data set is classed as in vitro ADME.
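Throughout, for Plasma Stability 240 min mouse [% remain.]: sodium citrate stabilized mouse plasma, parent compound quantified by HPLC/MS/MS relative to its peak area at time zero, run in triplicate.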
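Throughout, for Plasma Stability T½ [min] mouse: sodium citrate stabilized mouse plasma, parent compound quantified by HPLC/MS/MS relative to its peak area at time zero, run in triplicate.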

T1 sequence (O43193 whole entry, species assumed): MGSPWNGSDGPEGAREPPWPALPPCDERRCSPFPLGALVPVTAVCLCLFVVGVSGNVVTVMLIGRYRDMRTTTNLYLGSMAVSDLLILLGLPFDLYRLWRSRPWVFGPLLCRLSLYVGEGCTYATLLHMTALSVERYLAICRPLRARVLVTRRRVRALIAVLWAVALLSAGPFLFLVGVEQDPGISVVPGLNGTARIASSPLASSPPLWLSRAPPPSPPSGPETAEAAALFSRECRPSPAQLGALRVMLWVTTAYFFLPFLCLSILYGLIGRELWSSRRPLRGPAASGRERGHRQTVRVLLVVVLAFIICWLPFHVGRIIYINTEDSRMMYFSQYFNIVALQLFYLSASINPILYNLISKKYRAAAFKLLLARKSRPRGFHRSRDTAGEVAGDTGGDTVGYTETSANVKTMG

Take `CN1CC(=O)N2C[C@@H](NC(=O)Cc3cccc4ccccc34)C[C@H]2COc2ccc(F)cc2C(=O)N(C)[C@H](C(=O)NCCNC(=N)N)CCC1=O` [Ex. 484, (2S,11S,19aS)-N-(2-{[amino(imino)methyl]amino}ethyl)-15-fluoro-7,12-dimethyl-2-{[2-(1-naphthyl)acetyl]amino}-5,8,13-trioxo-2,3,6,7,8,9,10,11,12,13,19,19a-dodecahydro-1H,5H-pyrrolo[2,1-c] [1,4,7,12] benzoxatriazacyclopentadecine-11-carboxamide]: in data set [1], the IC50 is 0.2 µM and the inhibition at 10 µM was 99%. Also, in data set [2], the Metabolic Stability T½ [min] mouse was above 60 min and the “Metabolic Stability 60 min mouse [% remain.]” value was 100 % remain. Further, in data set [3], the Plasma Stability T½ [min] mouse is above 240 min and the “Plasma Stability 240 min mouse [% remain.]” value is recorded as 90 % remain. The half-life at 10 µM in data set [4] turned out to be 21 min. In addition, the “Metabolic Stability 60 min hum [% remain.]” value in data set [4] (both, 10 µM) was 11 % remain. Also, in data set [5], the Plasma Stability T½ [min] hum was above 240 min and the “Plasma Stability 240 min hum [% remain.]” value was found to be 100 % remain.

In data set [1], `CN1CC(=O)N2CC(NC(=O)Cc3cccc4ccccc34)CC2COc2ccc(F)cc2C(=O)N(C)C(C(=O)NCCNc2ccccn2)CCC1=O` [Ex. 485, [2S,11S,19aS)-15-fluoro-7,12-dimethyl-2-{[2-(1-naphthyl)acetyl]amino}-5,8,13-trioxo-N-[2-(2-pyridinylamino)ethyl]-2,3,6,7,8,9,10,11,12,13,19,19a-dodecahydro-1H,5H-pyrrolo[2,1-c] [1,4,7,12]benzoxatriaza-cyclopentadecine-11-carboxamide] showed an IC50 of 0.28 µM and an inhibition at 10 µM of 93%. Besides, in data set [2] (both sexes), the half-life at 10 µM worked out at 17 min. Further, the “Metabolic Stability 60 min mouse [% remain.]” value in data set [2] was found to be 11 % remain. Further, in data set [3], the Plasma Stability T½ [min] mouse was above 240 min and the “Plasma Stability 240 min mouse [% remain.]” value is recorded as 99 % remain. The half-life at 10 µM in data set [4] worked out at 14 min. In addition, the “Metabolic Stability 60 min hum [% remain.]” value in data set [4] (both, 10 µM) came to 8 % remain. In addition, in data set [5], the Plasma Stability T½ [min] hum was above 240 min and the “Plasma Stability 240 min hum [% remain.]” value was 100 % remain.

In data set [1], `CN(C)CCNC(=O)[C@@H]1CCC(=O)N(C)CC(=O)N2C[C@@H](NCCc3cccc4ccccc34)C[C@H]2COc2ccc(F)cc2C(=O)N1C` [Ex. 486, (2S,11S,19aS)-N-[2-(dimethylamino)ethyl]-15-fluoro-7,12-dimethyl-2-{[2-(1-naphthyl)ethyl]amino}-5,8,13-trioxo-2,3,6,7,8,9,10,11,12,13,19,19a-dodecahydro-1H,5H-pyrrolo[2,1-c] [1,4,7,12]benzoxatri-azacyclopentadecine-11-carboxamide] had a concentration for half-maximal inhibition (IC50) of 0.18 µM and an inhibition at 10 µM of 93%. Also, in data set [2], the Metabolic Stability T½ [min] mouse was above 60 min and the “Metabolic Stability 60 min mouse [% remain.]” value stood at 100 % remain. Also, in data set [3], the Plasma Stability T½ [min] mouse was above 240 min and the “Plasma Stability 240 min mouse [% remain.]” value stood at 98 % remain. In data set [4], the half-life at 10 µM turned out to be 23 min. In addition, the “Metabolic Stability 60 min hum [% remain.]” value in data set [4] (both, 10 µM) is reported as 13 % remain. In data set [5], the Plasma Stability T½ [min] hum is above 240 min and the “Plasma Stability 240 min hum [% remain.]” value stood at 100 % remain.

In the case of `CN1CCC[C@H](N2CCNCC2)C(=O)N2C[C@@H](O)C[C@H]2COc2cccc(c2)C1=O` [Ex. 580, (4S,6S,10S)-6-hydroxy-14-methyl-10-piperazino-2-oxa-8,14-diazatricyclo[14.3.1.0^4,8]icosa-1(20),16,18-triene-9,15-dione], the “Plasma Stability 240 min (rat) [% remain.]” value in data set [6] (240 min) is “(79) % remain”. In addition, the “Plasma Stability T½ [min] (rat)” value in data set [6] is reported as “(240) min”. In data set [4] (both, 10 µM), the Metabolic Stability T½ [min] hum is above 60 min and the “Metabolic Stability 60 min hum [% remain.]” value came to 100 % remain. Besides, in data set [5], the Plasma Stability T½ [min] hum was above 240 min and the “Plasma Stability 240 min hum [% remain.]” value was determined as 70 % remain.
